Where two headings read alike, the source gives them in different places.
Key:
[1] = system: patient with depression
Text: (§1) Plasma/serum samples are obtained and submitted to a lab-based immunoassay to quantify inflammatory markers in the plasma/serum sample. Inflammatory markers are compared to the patient's pre-treatment levels of plasma/serum inflammatory markers.

[2] = system: patient with bipolar disorder
Text: as §1

[3] = system: patient with autism
Text: as §1

[4] = system: patient with schizophrenia
Text: as §1

[5] = system: patient with posttraumatic stress disorder
Text: as §1

[6] = system: G93A SOD-1 mt. mouse model of ALS; settings: SOD-1 mutant mice, 2 mg/kg intravenously every three weeks
Description: Chlorite composition administration and survival studies have been done in G93A SOD-1 mt. mouse model of ALS. In this model, the SOD-1 mutant mice begin developing degeneration of neurologic function starting at approximately 70 days of age. The mice were dosed with chlorite composition at 2 mg/kg intravenously every three weeks with neuroscore and survival information being collected weekly.

[7] = system: monocyte/macrophage activation; settings: in vivo
[8] = system: markers of inflammation; settings: ALS patients, after a single dose
[9] = system: monocyte CD16
[10] = system: monocyte/macrophage activation; settings: in vitro
[11] = system: LPS; settings: Phase 2, responders positive for LPS at baseline
Text: (§2) These clinical data provided compelling rationale to test […] in pre-clinical models of Parkinson's disease to investigate its brain penetrance, ability to modulate microglia activation and peripheral immune cell infiltration to the CNS, and protect vulnerable neuronal populations from synuclein-induced degeneration.

[12] = system: ALS patients
Text: as §2

[13] = system: IL-18; settings: Phase 2, responders with elevated IL-18 at baseline
Text: as §2

For sodium chlorite, the “behavioral and/or neurophysical symptoms of depression” value ([1]; after weekly injection) was “found to be reduced”, the “levels of plasma/serum inflammatory markers after treatment” value ([1]; depression, vs pre-treatment levels) was “reduced” and the “behavioral and/or neurophysical symptoms of bipolar disorder” value ([2]; after weekly injection) was “found to be reduced”. The “levels of plasma/serum inflammatory markers after treatment” value ([2]; bipolar disorder, vs pre-treatment levels) was “reduced”, the “behavioral and/or neurophysical symptoms of autism” value ([3]; after weekly injection) was “found to be reduced” and the “levels of plasma/serum inflammatory markers after treatment” value ([3]; autism, vs pre-treatment levels) was “reduced”. For the same substance, the “behavioral and/or neurophysical symptoms of schizophrenia” value ([4]; after weekly injection) was “found to be reduced”, the “levels of plasma/serum inflammatory markers after treatment” value ([4]; schizophrenia, vs pre-treatment levels) was “reduced” and the “behavioral and/or neurophysical symptoms of posttraumatic stress disorder” value ([5]; after weekly injection) was “found to be reduced”. The “levels of plasma/serum inflammatory markers after treatment” value ([5]; posttraumatic stress disorder, vs pre-treatment levels) was “reduced”, the “survival compared with sham treated animals” value [6] was “almost three weeks longer” and the “neurologic degeneration (neuroscore)” value ([6]; vs sham) was “delayed by a similar time”. The “markers of monocyte/macrophage activation” value [7] was “reversed”, the markers of inflammation [8] was “decrease markers of inflammation” and the “reduction of the difference between ALS and normal control level of monocyte CD16 expression toward the normal value” ([9]; 24 hours after one dose, compared with baseline pretreatment levels) was “approximately 50%”. The “level of CD16 expression on the CD16 bright subset of monocytes” value ([9]; chlorite treated patients compared to placebo) was “Dose-dependent changes”, the “markers of monocyte/macrophage activation” value [10] was “reversed” and the “LPS in responders following treatment” value [11] was “decreased following treatment”. For the same substance, the “symptom progression in a subset of patients” value ([12]; Phase 2) was “may have dose-dependently halted symptom progression”, the “slower rate of progression than placebo patients” value ([12]; Phase 2, 2 mg/kg, patients above the median wr-CRP, six months of study) was 44% and the “dose dependence of disease progression in patients with above the median wr-CRP value” ([12]; Phase 2, baseline wr-CRP above 1125 ng/ml) was “dose dependent slowing of disease progression”. For the same substance, the “patients who did not progress / stopped progressing” value ([12]; Phase 2, high dose (2 mg/kg), six months of treatment) was 25%, the “number of non-progressing patients relative to placebo” value ([12]; Phase 2, high dose, six months of treatment) was “More than 2 times” and the “progression in patients with greater inflammation (higher CRP)” value ([12]; Phase 2, high-dose group) was “slowing of progression was observed”. For the same substance, the “IL-18 in responders following treatment” value [13] was “decreased following treatment”.
